The source of these data is article PMC2713098 (Nuclear medicine and biology, 2009).

In data set [1] the target is T1, rat A3AR (Rattus norvegicus, UniProt P28647).
T1 sequence (P28647 1-320): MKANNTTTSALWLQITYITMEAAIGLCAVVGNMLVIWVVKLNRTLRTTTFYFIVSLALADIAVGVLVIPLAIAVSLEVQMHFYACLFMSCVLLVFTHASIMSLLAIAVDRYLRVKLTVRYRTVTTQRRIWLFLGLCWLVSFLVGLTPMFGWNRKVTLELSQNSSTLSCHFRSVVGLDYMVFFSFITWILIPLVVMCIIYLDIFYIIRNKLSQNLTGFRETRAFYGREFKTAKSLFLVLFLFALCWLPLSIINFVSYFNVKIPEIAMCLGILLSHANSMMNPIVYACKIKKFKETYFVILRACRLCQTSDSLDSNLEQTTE
Nature of the data set: Competitive radioligand binding at rat A3AR in CHO cell membranes using [76Br]4. Particulars: for potency in binding to the rat A3AR: Figures 1A and 1B, [76Br]4 or [76Br]6 as radioligand; for Ki: read-out: Rat Ki, CHO cell membranes, radioligand [76Br]4 0.5 nM, 25°C 60 min.

For data set [2], the target named is T1, rat A3AR.
The target of data set [3] is T2, human A3AR (Homo sapiens, UniProt P0DMS8).
T2 sequence (P0DMS8 1-318): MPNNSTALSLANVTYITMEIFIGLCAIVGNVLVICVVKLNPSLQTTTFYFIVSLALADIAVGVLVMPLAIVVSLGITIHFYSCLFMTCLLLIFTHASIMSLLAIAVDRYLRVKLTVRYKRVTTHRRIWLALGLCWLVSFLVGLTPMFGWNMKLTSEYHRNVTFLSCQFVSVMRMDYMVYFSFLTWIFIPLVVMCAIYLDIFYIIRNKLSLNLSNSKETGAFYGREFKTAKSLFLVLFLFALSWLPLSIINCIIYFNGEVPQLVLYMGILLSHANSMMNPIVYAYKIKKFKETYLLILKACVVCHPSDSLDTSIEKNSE
The conditions noted are these: for potency at human versus rat A3AR: Figures 1A and 1B; for Ki: read-out: Human Ki, CHO cell membranes, radioligand [76Br]4 0.5 nM, 25°C 60 min.

Data set [4] concerns the target T2, human A3AR. Particulars: read-out: Human Ki; CHO cell membranes, radioligand [76Br]MRS5147 6.
Data set [5] is described as follows: In vitro metabolism in rat hepatocytes. Format: in vitro ADME. Particulars: 20 μg/mL, 37°C, up to 4 hours; only very small amounts of metabolites by LC/MS.
Data set [6] is described as follows: In vitro metabolism in human hepatocytes. Format: in vitro ADME. Particulars: 20 μg/mL, 37°C, up to 4 hours; only very small amounts of metabolites by LC/MS.
In a further data set the test system is A3AR. The data set can be described thus: In vitro tissue binding. The conditions noted are these: rat whole brain and testes slices, with and without inhibitors, preliminary.
Data set [7] can be described thus: In vivo biodistribution study in rats. Also on record: species or system rat. Particulars: for uptake in testes over time: i.v., 15, 60 and 120 min post-injection.
Data set [8] addresses T2, human A3AR. Particulars: cited from earlier work.
The mark [9] stands for this setting: read-out: Rat Ki, CHO cell membranes, radioligand [76Br]MRS5147 6.

SMILES strings stand for the structures. Entries after “also recorded” stand apart in the source; their conditions may differ. Where two headings read alike, the source gives them in different places.

The Ki is a measure of affinity in units of concentration, obtained from inhibition or displacement.

For the molecule `O=C(Cc1ccccc1)Nc1nc2ccc(Cl)cc2c2nc(-c3ccco3)nn12` [MRS1220, N-[9-chloro-2-(2-furanyl)[1,2, 4]triazolo[1,5-c]quinazolin-5-yl]benzeneacetamide], on rat A3AR [1], the “potency in binding to the rat A3AR” value was “ineffective” and the Ki is above 10000 nM. Moreover, on rat A3AR [2] (setting [9]), the Ki was above 10000 nM.
With `CCCOC(=O)c1c(-c2ccccc2)nc(CC)c(C(=O)SCC)c1CCC` [MRS1523, 3-propyl-6-ethyl-5-[(ethylthio)carbonyl]-2-phenyl-4-propyl-3-pyridine carboxylate, reference compound], the “potency in binding to the rat A3AR” value at rat A3AR [1] was “moderately potent”. Moreover, the Ki stood at 939 ± 98 nM at rat A3AR [1], 125 ± 13 nM on human A3AR [3], 2830 ± 520 nM on rat A3AR [2] (setting [9]) and 120 ± 17 nM at human A3AR [4]. Further, on human A3AR [3], the “potency at human versus rat A3AR” value was “more potent at the human A3AR”.
As to `CNC(=O)[C@]12C[C@@H]1[C@@H](n1cnc3c(NCc4cccc([76Br])c4)nc(Cl)nc31)[C@H](O)[C@@H]2O` [[^76Br]4, [^76Br](1′R,2′R,3′S,4′R,5′S)-4-{2-chloro-6-[(3-bromophenylmethyl)amino]purin-9-yl}-1-(methylaminocarbonyl)bicyclo[3.1.0]hexane-2,3-diol], in data set [5], the “metabolic stability in rat hepatocytes” value is given as “very stable”. In addition, in [6], the “metabolic stability in human hepatocytes” value is “very stable”. The “specific uptake of radioligand in tissue slices” value in the data set with A3AR is listed as “fail to show any specific uptake”. Further, the “organs of primary uptake” value in data set [7] (i.v., Sprague-Dawley rats, 15-120 min) was “liver and kidneys”.
With `O[C@@H]1[C@H](O)[C@@H]2C[C@@H]2[C@H]1n1cnc2c(NCc3cccc([76Br])c3)nc(Cl)nc21` [[^76Br]6, [^76Br](1R,2R,3S,4R,5S)-4-(6-(3-bromobenzylamino)-2-chloro-9H-purin-9-yl)bicyclo[3.1.0]hexane-2,3-diol], the “uptake in testes over time” value in data set [7] (rat) is “continued to increase with time; also recorded: statistically increased relative to the 15 min time point”. In data set [7] (rat, i.v., %ID/g), the “tissue uptake relative to agonist [76Br]4” value is on record as “an order of magnitude lower”.
For `CNC(=O)[C@]12C[C@@H]1[C@@H](n1cnc3c(NCc4cccc(Br)c4)nc(Cl)nc31)[C@H](O)[C@@H]2O` [compound 4, (1′R,2′R,3′S,4′R,5′S)-4-{2-chloro-6-[(3-bromophenylmethyl)amino]purin-9-yl}-1-(methylaminocarbonyl)bicyclo[3.1.0]hexane-2,3-diol], the “selectivity in comparison to other AR subtypes” value on human A3AR [8] is on record as “high selectivity”. In addition, the Ki was 0.38 nM at human A3AR [8] (read-out: Ki value at the human A3AR, shown previously, listed as 4 (MRS3581)); 0.9 ± 0.07 nM on rat A3AR [1]; 0.63 ± 0.05 nM on human A3AR [3]. Moreover, the “potency at human versus rat A3AR” value at human A3AR [3] is “equally potent”.
For `O[C@@H]1[C@H](O)[C@@H]2C[C@@H]2[C@H]1n1cnc2c(NCc3cccc(Br)c3)nc(Cl)nc21` [compound 6, (1R,2R,3S,4R,5S)-4-(6-(3-bromobenzylamino)-2-chloro-9H-purin-9-yl)bicyclo[3.1.0]hexane-2,3-diol], in data set [7] (rat), the “uptake in testes over time” value is given as “increasing uptake in testes”. Moreover, the affinity on rat A3AR [2] corresponds to a Ki of 5.2 ± 1.8 nM.
